The text below walks through data of patent US10183008B2, “Treatment of prolonged status epilepticus” (University of South Carolina, priority 2011, dated 2019).

Experiment [1] concerns tonic inhibition (GABAergic tonic current). Briefly: Brain slice whole-cell electrophysiology: tonic current in dentate granule cells. Format: cell-based, rat. The conditions noted are these: for effect on tonic inhibition: 1 μM DZP, 100 μM STP.
In experiment [2] the test system is lithium-pilocarpine model of S.E. Briefly: Lithium-pilocarpine model of status epilepticus, behavioral seizure scoring (Racine scale). Format: in vivo, rat. The settings on record: for termination of brief behavioral convulsions: postnatal 20-25 day male rats, drug i.p. at onset of first stage 3 convulsion, score 15 min after. The procedure: The ED50 was determined based on the fit of the sigmoidal dose-response curve.
Experiments were performed on male rats age 5-65 days. SE was induced using lithium pilocarpine. Brief SE was defined as the onset of stage 3 seizures. Prolonged SE was defined as 45 minutes of SE following the first stage 3 seizure.
Status epilepticus was induced in male Sprague Dawley rats (5-65 days old; Harlan Sprague Dawley, Indianapolis, Ind.) by intraperitoneal injection of lithium chloride (LiCl) at 127 mg/kg followed 15-20 hr later by scopolamine methylbromide (2 mg/kg) and then pilocarpine at 60 mg/kg. After pilocarpine injection, the rats were observed continuously for occurrence of behavioral seizures. Seizures were scored according to the Racine scale with slight modifications: 0-normal behavior; 1-immobile, staring, curled-up posture; 2-automatisms: repetitive blinking, chewing, headbobbing, vibrissae twitching, scratching, face-washing; 3-forelimb/hindlimb myoclonic jerking, head tremor; 4-rearing, whole body clonus; 5-loss of posture, rearing and falling. EEG recordings, have established that the cortical electrographic onset of SE corresponds to the onset of forelimb clonus, or stage 3 seizures. Therefore, diazepam or stiripentol was administered either at the onset of S3 seizures (brief SE) or 45 min after S3 seizure onset (prolonged SE). The seizure scores were taken continuously, but specifically 15 mins after the first S3 seizure, and 15 mins after treatment. The scores represented in the data were recorded 15 minutes following treatment. Solutions of lithium, scopolamine, pilocarpine and stiripentol were made fresh on the day of the experiments. Lithium, scopolamine and pilocarpine were dissolved in 0.9% saline. Stiripentol was dissolved in 20% propylene glycol and 80% ethanol. Diazepam was purchased commercially in a solution of 10% propylene glycol and 80% ethanol. All drugs were administered via intraperitoneal (i.p) injection.

Experiment [3] relates to GABAAR subunit combinations. The settings on record: STP 100 μM, GABA 0.3 μM, n=5-9, HEK-293T; cited from earlier work.
For the next experiment, the system named is prolonged SE. The conditions noted are these: 45 minutes after onset; cited from earlier work.

As to `CC(C)(C)C(O)/C=C/c1ccc2c(c1)OCO2` (stereo not drawn) [STP, 1-(3,4-methylenedioxyphenyl)-4,4-dimethylpent-1-en-3-ol], the “effect on tonic inhibition” value in experiment [1] is reported as “increase tonic inhibition”. Besides, the “anticonvulsant effect in 60-65 compared to 20-25 day old rats” value in experiment [2] (age comparison) was “reduced”. Besides, the “termination of brief behavioral convulsions” value in experiment [2] is listed as “terminate brief behavioral convulsions”. Further, in experiment [3], the “effect on GABA current” value is listed as “increases GABA (0.3 μM) current at all tested GABAAR subunit combinations”.
As to `CN1C(=O)CN=C(c2ccccc2)c2cc(Cl)ccc21` [DZP, diazepam], in experiment [1], the “effect on tonic inhibition” value is listed as “increase tonic inhibition”. Besides, the “potentiation of tonic current during prolonged SE” value in experiment [1] (prolonged SE, DZP 1 μM, STP 100 μM, n=3-4) was “less effective at potentiating tonic current”. The “termination of brief behavioral convulsions” value in experiment [2] is on record as “terminate brief behavioral convulsions”. Moreover, in experiment [2] (prolonged SE (45 min after stage 3 onset) vs brief SE), the “pharmacoresistance following prolonged SE (shift of ED50 for seizure termination)” value is “develops pharmacoresistance”. Moreover, the “fold decrease in efficacy at terminating prolonged SE” value in the experiment with prolonged SE is 9-10 fold.
